The results in this text go back to ChEMBL document CHEMBL4834430, “Design and Structure-Activity Relationships of Isothiocyanates as Potent and Selective N-Acylethanolamine-Hydrolyzing Acid Amidase Inhibitors” (J Med Chem, 2021).

The structures appear in SMILES notation.

Data set [1] can be described thus: Half life in rat liver microsomes at 1 uM in presence of NADPH by LC-MS/MS analysis. It is filed as ADME, Microsome.
The nature of data set [2]: Half life in mouse liver microsomes at 1 uM in presence of NADPH by LC-MS/MS analysis. Type of data set: ADME, Microsome.
Data set [3] can be described thus: Half life in human liver microsomes at 1 uM in presence of NADPH by LC-MS/MS analysis. It is filed as ADME, Microsome. (In general: Liver microsomes are a subcellular fraction often used to study metabolism.)
Data set [4] deals with T1, N-acylethanolamine-hydrolyzing acid amidase (Homo sapiens, UniProt Q02083).
T1 sequence (Q02083 whole entry): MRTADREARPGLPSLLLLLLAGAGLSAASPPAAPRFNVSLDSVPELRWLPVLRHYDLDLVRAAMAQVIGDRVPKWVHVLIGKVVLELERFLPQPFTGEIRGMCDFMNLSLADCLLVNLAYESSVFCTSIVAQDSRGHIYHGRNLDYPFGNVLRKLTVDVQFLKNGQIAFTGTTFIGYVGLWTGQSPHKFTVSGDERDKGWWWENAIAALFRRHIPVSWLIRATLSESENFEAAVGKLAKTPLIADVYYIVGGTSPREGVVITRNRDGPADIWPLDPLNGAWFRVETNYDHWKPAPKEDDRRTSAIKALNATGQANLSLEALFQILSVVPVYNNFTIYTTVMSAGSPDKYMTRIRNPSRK
As to the kind of experiment: Inhibition of human NAAA using N-(4-methyl coumarin)-palmitamide as fluorogenic substrate preincubated for 90 mins followed by substrate addition by fluorescence assay.

Data set [5] addresses T2, Cathepsin K (Homo sapiens) (UniProt P43235).
T2 sequence (whole entry): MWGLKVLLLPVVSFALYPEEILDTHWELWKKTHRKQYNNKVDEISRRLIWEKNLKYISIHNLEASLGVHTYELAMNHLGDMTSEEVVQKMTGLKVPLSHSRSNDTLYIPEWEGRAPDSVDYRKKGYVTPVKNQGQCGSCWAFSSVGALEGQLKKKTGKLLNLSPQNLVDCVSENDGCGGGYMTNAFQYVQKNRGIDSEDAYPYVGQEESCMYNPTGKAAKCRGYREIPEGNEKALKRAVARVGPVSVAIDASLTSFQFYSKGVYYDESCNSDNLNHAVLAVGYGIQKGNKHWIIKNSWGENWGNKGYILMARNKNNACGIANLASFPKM
As to the kind of experiment: Inhibition of recombinant human Cathepsin K at 100 nM using Z-Phe-Arg-AMC as fluorogenic substrate preincubated for 120 mins followed by substrate addition by fluorescence assay relative to control.

The target of the next data set is T3, Cathepsin K (Homo sapiens, UniProt P43235).
T3 sequence (P43235 whole entry): T2 sequence (whole entry)
Description: Inhibition of recombinant human Cathepsin K using Z-Phe-Arg-AMC as fluorogenic substrate preincubated for 120 mins followed by substrate addition by fluorescence assay.

Data set [6] deals with T4, N-acylethanolamine-hydrolyzing acid amidase (Homo sapiens) (UniProt Q02083).
T4 sequence (whole entry): T1 sequence (Q02083 whole entry)
As to the kind of experiment: Inhibition of human NAAA at 1 uM using N-(4-methyl coumarin)-palmitamide as fluorogenic substrate preincubated for 90 mins followed by substrate addition by fluorescence assay relative to control.

Data set [7] is described as follows: Drug metabolism in rat liver microsomes assessed as […] (R)-2-amino-3-((1s,3S)-3-(2-fluoro-4-(2-methoxypyridin-3-yl)benzyloxy)cyclobutylcarbamoylthio)propanoic acid formation at 1 uM in absence of NADPH by LC-MS/MS analysis. Type of data set: ADME.
Data set [8] can be described thus: Drug metabolism in rat liver microsomes assessed as (2-fluoro-4-(2-methoxypyridin-3-yl)phenyl)methanol formation at 1 uM in presence of NADPH by LC-MS/MS analysis. It is filed as ADME, Microsome.
Data set [9] in a line: Drug metabolism in rat liver microsomes assessed as (1s,3s)-3-(2-fluoro-4-(2-methoxypyridin-3-yl)benzyloxy)cyclobutanamine formation at 1 uM in presence of NADPH by LC-MS/MS analysis. It is filed as ADME, Microsome.
Data set [10] is described as follows: Drug metabolism in rat liver microsomes assessed as (R)-2-amino-3-((1s,3S)-3-(2-fluoro-4-(2-methoxypyridin-3-yl)benzyloxy)cyclobutylcarbamothioylthio)propanoic acid formation at 1 uM in absence of NADPH by LC-MS/MS analysis. Type of data set: ADME, Microsome.
The nature of data set [11]: Drug concentration in plasma of CD-1 mouse at 8 mg/kg, po administered as single cassette dose measured after 60 mins. Type of data set: ADME, organism-based.
Data set [12] is described as follows: Drug concentration in brain of CD-1 mouse at 2 mg/kg, iv administered as single cassette dose measured after 15 mins. Type of data set: ADME, organism-based. The following applies: read-out: Ct.
Data set [13] in a line: Drug concentration in plasma of CD-1 mouse at 2 mg/kg, iv administered as single cassette dose measured after 15 mins. Type of data set: ADME, organism-based.
Data set [14] in a line: Drug concentration in plasma of CD-1 mouse at 8 mg/kg, po administered as single cassette dose measured after 30 mins. Type of data set: ADME, organism-based.
Data set [15] has as its target T4, N-acylethanolamine-hydrolyzing acid amidase (Homo sapiens). Description: Covalent inhibition of human NAAA assessed as ratio of Kinact/Ki.
Data set [16] addresses T1, N-acylethanolamine-hydrolyzing acid amidase. As to the kind of experiment: Inhibition of NAAA (unknown origin).

For the compound `COc1cnc(-c2ccc(CO[C@H]3C[C@@H](N=C=S)C3)cn2)cc1F`, the half-life (usually how long it takes for the measured level to halve) at 1 µM amounted to 10.2 min in data set [1], 5.1 min in data set [2] and 11.8 min in data set [3]. Further, the IC50 (usually the point on the concentration scale where inhibition reaches its midpoint) in data set [4] came to 0.015 µM. Also, the inhibition (commonly the change of the read-out against control, counted positive when it falls) in [5] came out at 56.8%.
With `Fc1cc(-c2ccc3c(c2)CCO3)ccc1CO[C@H]1C[C@@H](N=C=S)C1`, the IC50 was 0.0835 µM at Cathepsin K and 0.0045 µM in data set [4].
`COc1ccc(-c2ncc(C(=O)N[C@H]3C[C@@H](N=C=S)C3)o2)cc1` displayed an inhibition in data set [6] of 51%.
For `COc1ncccc1-c1ccc(CO[C@H]2C[C@@H](N=C=S)C2)c(F)c1`, the values for the half-life at 1 µM in [1], in data set [2] and in data set [3] were 14.5 min, 6.8 min and 15.3 min, respectively. Further, the Drug metabolism entry in data set [7], in data set [8], in [9] and in data set [10] was “Metabolite_Detected” each time. The same compound showed an IC50 in data set [4] of 0.304 µM.
In data set [11], `Fc1cc(-c2ccc(OC(F)(F)F)c(F)c2)ccc1CO[C@H]1C[C@@H](N=C=S)C1` had a concentration at 1 h of 0.007 µg/mL. For the same compound, the half-life at 1 µM is 9.1 min in [1], 2.9 min in data set [2] and 10.9 min in [3]. The values for the IC50 (on Cathepsin K; in data set [4]) were 0.0586 µM and 0.0971 µM, respectively. Also, the concentration at 0.25 h in data set [12] is 8 ng/g; in data set [13], 0.178 µg/mL. In data set [14], the concentration at 0.5 h is 0.012 µg/mL.
In the case of `COc1cnc(-c2cnc(CO[C@H]3C[C@@H](N=C=S)C3)c(F)c2)cc1F`, the half-life at 1 µM was determined as 7.4 min in [1], 6.3 min in data set [2] and 7.1 min in data set [3]. The same compound came in with an IC50 in data set [4] of 0.0195 µM. The inhibition in data set [5] is 43.7%.
In data set [6], `COc1ccc(-c2ccc(CO[C@H]3CCC[C@@H](N=C=S)C3)cc2)cc1F` displayed an inhibition of 35%.
Consider `COc1ccc(-c2ccc(CO[C@H]3C[C@@H](N=C=S)C3)c(F)c2)cc1F`, for which the Ratio in data set [15] is 2.85 10^6/M/s. For the same compound, the IC50 in data set [4] turned out to be 0.0206 µM. Besides, the inhibition in data set [5] was 56.5%.
As to `O=C(CCCCCc1cccc(Cl)c1)N1CCOC1=O`, it took 0.009 µM to reach half-maximal inhibition in data set [16] (IC50).
Regarding `CS(=O)(=O)c1ccc(-c2ccc(C(=O)N[C@H]3C[C@@H](N=C=S)C3)nc2)cc1`, the inhibition in data set [6] amounted to 41%.
